The values below come from PMC12027149 (International Journal of Molecular Sciences, 2025).

Data set [1] concerns differentiated SH-SY5Y cells. Nature of the data set: MTT cytotoxicity assay on differentiated SH-SY5Y cells. The settings on record: lowest observed adverse effect level, differentiated SH-SY5Y, 24 h, MTT. In kind it is cell-based, human. The protocol:
(§1) The SH–SY5Y cell line (DSMZ code: ACC 209) was supplied by the German Collection of Microorganisms and the Cell Culture GmbH (DSMZ) biobank and was cultured according to the supplier’s information. Cells were grown in DMEM:F12 (Dulbecco’s Modified Eagle’s Medium/F12), supplemented with 10% fetal bovine serum (FBS) and 1% antibiotic–antimycotic in a humidified atmosphere with 5% CO2 at 37 °C. Subculture was performed according to biobank instructions when the cultures reached 80–85% of confluence.
(§2) SH-SY5Y cells were trypsinized (trypsin/EDTA; 0.25%) and the cell suspension was seeded in 96-well plates at a density of 2 × 10^4 cells/well and incubated until reaching 80-85% confluence. Cells were differentiated to obtain a dopaminergic neuronal phenotype according to Ferreira et al. with slight modifications (Figure 10). To ensure reproducibility and optimal neuronal differentiation, cells were used between passages (15–25). Briefly, cells were seeded in complete DMEM:F12 medium containing 10 µM retinoic acid (RA) and 2.5% fetal bovine serum (FBS) and maintained for 4 days, with the medium changed on day 2. After this time, the medium was replaced by DMEM:F12 supplemented with 10 µM RA, 80 nM 12-O-tetradecanoylphorbol-13-acetate (TPA), and 2.5% FBS, and the cells were maintained for an additional 4 days (with the medium changed at day 6). The cytotoxicity assay was performed on day 8.
(§3) The SH-SY5Y cells’ viability was evaluated after exposure for 24 h to […]. The 3-(4,5-dimethylthiazol-2-yl) − 2,5-diphenyltetrazolium bromide (MTT) colorimetric assay was performed following the methodology described by Joana Silva et al.. The experimental dose–response results were fitted to the Hill’s sigmoidal non-linear regression model. For each cathinone, the LC50 values (cathinone concentration showing 50% lethality) and their confidence interval at the 95% confidence level ([CI]) were determined. The Hill slope, also known as the Hill coefficient, which describes the steepness of a dose–response curve, and the minimum observable adverse effect concentration (LOAEL) were also determined for all cathinones.

Test in data set [2]: as above
The settings on record: human, differentiated SH-SY5Y, 0.05–5 mM, MTT reduction assay, Hill fit, read-out: LC50. In kind it is cell-based, human. Here is the method:
as §1, §2, §3

Data set [3] addresses T1, Acetylcholinesterase (AChE, EC 3.1.1.7) (Electrophorus electricus, UniProt O42275).
T1 construct: purchased Sigma-Aldrich
Put plainly: Acetylcholinesterase inhibition, modified Ellman colorimetric method. The settings on record: for Hillslope: AChE inhibition dose–response curve; for LOAEL: AChE inhibition; for LOAEL / IC50: Ellman assay; for IC50: IC50, AChE inhibition, 0.03–2 mM, Hill fit. In kind it is biochemical. Here is the method:
Acetylcholinesterase (AChE, EC 3.1.1.7) enzymatic activity was assessed using a modified version of Ellman’s colorimetric method, as described by Falé et al.. In this assay, a mixture of 325 μL of 50 mM Tris-HCl buffer (pH 8), 100 μL of a cathinone solution, and 25 μL of AChE (0.1 U/mL in 50 mM Tris–HCl buffer pH 8) were incubated. After a 15 min incubation period, 75 μL of AChI (0.33 mg/mL) was added to 475 μL of DTNB (dithiobis (2-nitrobenzoic acid)) (1.2 mg/mL in Tris–HCl buffer (pH 8) containing 0.1 M NaCl and 0.02 M MgCl2). A control reaction, representing 100% activity, was performed using the same volume of water instead of the cathinone solution. The initial velocity of the enzymatic reaction was measured at 405 nm for 5 min, with all assays carried out in duplicate. The percentage of AChE activity inhibition for different concentrations of cathinones [0.03–2 mM] was determined as the ratio of the initial velocity in the cathinone presence to the initial velocity of the control reaction. Experimental results were fitted to Hill’s sigmoidal dose–response non-linear regression model to determine IC50 values (cathinone concentration showing 50% inhibition), along with their confidence interval at the 95% confidence level ([CI]). The Hill slope coefficients that provide the steepest value of the slope of the dose–response curve and the minimum observable adverse effect concentration (LOAEL) for all cathinones were also determined.

The subject of data set [4] is SH-SY5Y cells. Put plainly: Mitochondrial membrane potential (JC-1 probe). The following applies: 6 h treatment at LC50, JC-1. In kind it is cell-based, human. Here is the method:
Mitochondrial membrane potential (MMP) was estimated by using the JC-1 fluorescent probe (Molecular Probes, Eugene, OR, USA) as described in Silva et al., 2022 [65]. The formation of JC-1 aggregates (excitation λ: 490 nm; emission λ: 590 nm) and monomers (excitation λ: 490 nm; emission λ: 530 nm) was measured for 30 min using a plate reader (Bio-Tek Synergy plate reader, Bedfordshire, UK). Changes in MMP were calculated as the ratio between JC-1 monomers and aggregates and expressed as a percentage of the control. An FCCP (2.5 µM) and oligomycin A (1 mg/mL) conjugate solution was used as the positive control. All data were obtained from at least three independent experiments (n = 3) and were presented as mean ± standard error of the mean (SEM).

Data set [5] deals with SH-SY5Y cells. Nature of the data set: Intracellular reactive oxygen species levels (H2-DCFDA probe). In kind it is cell-based, human. The settings on record: 6 h treatment at LC50. The protocol: Reactive oxygen species (ROS) production was determined by evaluating ROS levels after exposure to cathinones at concentrations corresponding to their LC50 for 6 h. SH-SY5Y cells were washed with 1× PBS and incubated with 100 µL of 2′,7′-dichlorodihydrofluorescein diacetate (H2-DCFDA) (20 µM) in medium without FBS, for 60 min at 37 °C in the dark. Subsequently, the cells were washed with 1× PBS (1×), and the cells were maintained for 30 min at room temperature in 100 µL of PBS. After this time, ROS levels were determined by measuring fluorescence (excitation wavelength (λ): 495 nm; emission λ: 527 nm). Ascorbic acid (A.A) (100 µg/mL) served as the negative control and, hydrogen peroxide (H2O2) (200 µM) was used as the positive control. Results were expressed as a percentage relative to the control. All data were derived from at least three independent experiments (n = 3) and presented as mean ± standard error of the mean (SEM).

Values joined by “and” are separate entries in the source; they are usually repeats but may differ in a detail not shown here. Identical values can stand only once.

T1 sequence (O42275 24-633): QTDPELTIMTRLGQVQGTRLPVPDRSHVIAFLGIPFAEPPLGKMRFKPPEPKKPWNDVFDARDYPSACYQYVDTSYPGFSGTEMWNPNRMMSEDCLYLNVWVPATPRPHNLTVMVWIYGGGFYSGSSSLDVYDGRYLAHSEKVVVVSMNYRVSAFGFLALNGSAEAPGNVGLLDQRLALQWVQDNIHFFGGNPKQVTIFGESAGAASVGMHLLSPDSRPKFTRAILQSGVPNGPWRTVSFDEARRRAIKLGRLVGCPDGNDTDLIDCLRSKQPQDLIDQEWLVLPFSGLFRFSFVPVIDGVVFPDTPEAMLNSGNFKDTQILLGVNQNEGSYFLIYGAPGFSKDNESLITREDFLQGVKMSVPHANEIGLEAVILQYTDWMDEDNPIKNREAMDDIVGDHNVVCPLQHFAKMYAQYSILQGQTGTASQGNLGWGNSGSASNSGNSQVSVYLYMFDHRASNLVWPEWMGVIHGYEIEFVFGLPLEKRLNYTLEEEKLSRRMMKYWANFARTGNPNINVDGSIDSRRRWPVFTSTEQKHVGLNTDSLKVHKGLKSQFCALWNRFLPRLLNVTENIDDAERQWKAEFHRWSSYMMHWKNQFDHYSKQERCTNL

Turning to `CCCCNC(C)C(=O)c1cccc(Cl)c1` (racemic) [3-CBC (7), (R,S)-2-(butylamino)-1-(3-chlorophenyl)propan-1-one], the LOAEL in data set [1] was 0.1 mM. Moreover, in data set [2], the CC50 at 24 h came out at 700 µM. In data set [3], this compound displayed a Hillslope of 1.4, an LOAEL of 0.125 mM and an IC50 of 400 µM. Moreover, the “MMP depolarization” value in the data set with SH-SY5Y cells [4] is given as “more pronounced MMP depolarization than the other cathinones”.

For the compound `CCN(CC)C(C)C(=O)c1cccc(Cl)c1` (racemic) [3-Cl-DEC (15), (R,S)-1-(3-chlorophenyl)-2-(diethylamino)propan-1-one], the lowest observed adverse effect level (LOAEL) in data set [1] is 1 mM and 1.0 mM. In addition, the CC50 at 24 h in data set [2] was 1200 µM. The “significant increase in ROS production compared to vehicle” value in the data set with SH-SY5Y cells [5] was “exception”. The “maximum inhibition of AChE among the tested concentrations” value in data set [3] (0.03 to 2 mM) was 87%. Also, in data set [3], the Hillslope came out at 0.9, the lowest-observed-adverse-effect level (LOAEL) stood at 0.063 mM and inhibition was half-maximal at 300 µM (IC50). Also, in the data set on SH-SY5Y cells [4], the “MMP depolarization” value is on record as “more pronounced MMP depolarization than the other cathinones”.

`CCCCNC(C)C(=O)c1ccc(Cl)cc1` (racemic) [4-CBC (8), (R,S)-2-(butylamino)-1-(4-chlorophenyl)propan-1-one]: the lowest observed adverse effect level (LOAEL) in data set [1] is recorded as 0.5 mM. Also, in data set [2], the CC50 at 24 h was determined as 600 µM. In data set [3], this compound returned a Hillslope of 5.1, an LOAEL of 0.100 mM and a 50% inhibitory concentration (IC50) of 1300 µM. In the data set with SH-SY5Y cells [4], the “MMP depolarization” value was “more pronounced MMP depolarization than the other cathinones”.

For `CC(NC(C)(C)C)C(=O)c1ccc(Cl)cc1` (racemic) [4-Cl-TBC (20), (R,S)-2-(tert-butylamino)-1-(4-chlorophenyl)propan-1-one], the LOAEL in data set [1] was 0.5 mM. Besides, in data set [2], the CC50 at 24 h came out at 1300 µM. Besides, the “increase in ROS production compared to the vehicle” value with SH-SY5Y cells [5] amounted to 30%. In data set [3], this compound registered a Hillslope of 2.7, an LOAEL of 0.500 mM and a 50% inhibitory concentration (IC50) of roughly 2000 µM. In data set [3] (highest tested concentration of 2 mM), at 2000 µM the inhibition was 48%.
